Data published in US20120022142A1, “RNA Interference Mediated Inhibition of Signal Transducer and Activator of Transcription 1 (STAT1) Gene Expression Using Short Interfering Nucleic Acid (siNA)” (Merck Sharp & Dohme Corp., priority 2009, published 2012).
[invAb] = inverted abasic unit; d = 2'-deoxy (DNA); m = 2'-O-methyl; r = 2'-OH (RNA); f = 2'-fluoro

Tests used:
[1] = tested on: STAT1 mouse mRNA; assay: Initial screen of siNAs: STAT1 mRNA knock-down in NIH 3T3 cells (96-well transfection, Taqman RT-PCR); format: cell-based; conditions: 10 nM siNA, 24 hrs, normalized against GAPDH, average of 2 experiments
Procedure: NIH 3T3 (mouse; ATCC cat# CRL-1658): Cells were cultured at 37° C. in the presence of 5% CO2 and grown in Dulbecco's modified Eagle's medium (DMEM) with 4 mM L-glutamine adjusted to contain 1.5 g/L sodium bicarbonate and 4.5 g/L glucose and supplemented with fetal bovine serum at a final concentration of 10%, 100 μg/mL of streptomycin, and 100 U/mL penicillin.
(§1) Cells were plated in all wells of a tissue-culture treated, 96-well plate at a final count of 5000 cells/well in 100 μL of the appropriate culture media. The cells were cultured for 24 hours after plating at 37° C. in the presence of 5% CO2.
(§2) After 24 hours, complexes containing siNA and RNAiMax were created as follows: A solution of RNAiMax diluted 33-fold in OPTI-MEM was prepared. In parallel, solutions of the siNAs for testing were prepared to a final concentration of 120 nM in OPTI-MEM. After incubation of RNAiMax/OPTI-MEM solution at room temperature for 5 min, an equal volume of the siNA solution and the RNAiMax solution were added together for each of the siNAs.
(§3) This solution was incubated at room temperature for 20 minutes. After incubation, 20 uL of the solution was added to each of the relevant wells. The final concentration of siNA in each well was 10 nM and the final volume of RNAiMax in each well was 0.3 ul.
(§4) The time of incubation with the RNAiMax-siNA complexes was 24 hours and there was no change in media between transfection and harvesting, unless otherwise indicated.
(§5) RNA was extracted from a 96-well plate using the TaqMan® Gene Expression Cells-to-CT™ Kit (Cat# 4399002) with a modified protocol. Briefly, a 60 uL (1 plate) or 110 uL (2 plates) of the Lysis Solution with DNase I was dispensed into each well of the Lysis Buffer Plate (twin.tec full skirt plate). The lysis buffer and stop plates were stored at 4° C. until the cells were washed.
(§6) The culture medium was aspirated and discarded from the wells of the culture plate. 50 uL of chilled DPBS was added to each well, then aspirated and discarded. The lysis was performed automatically using a BioMek FX instrument and method. After the Biomek method was completed, the lysis plate was incubated for 2 min at room temperature. The lysis plate can be stored for 2 hours at 4° C., or at −20° C. or −80° C. for two months.
(§7) Each well of the reverse transcription plate required 10 uL of 2× reverse transcriptase Buffer, 1 uL of 20× reverse transcription enzyme and 2 uL of nuclease-free water. The reverse transcription master mix was prepared by mixing 2× reverse transcription buffer, 20× reverse transcription enzyme mix, and nuclease-free water. 13 uL of the reverse transcription master mix was dispensed into each well of the reverse transcription plate (semi-skirted). A separate reverse transcription plate was prepared for each cell plate. The plate was loaded onto a Biomek NX or Biomek FX Dual-96 and the Biomek method was run. The program is programmed to automatically added 7 uL of lysate from the cell lysis procedure described above into each well of the reverse transcription plate. The plate is sealed and spun on a centrifuge (1000 rpm for 30 seconds) to settle the contents to the bottom of the reverse transcription plate. The plate is placed in a thermocycler at 37° C. for 60 min, 95° C. for 5 min, and 4° C. until the plate is removed from the thermocycler. Upon removal, if not used immediately, the plate was frozen at −20° C.
(§8) A series of probes and primers were used to detect the various mRNA transcripts of the genes of β-Actin (human cell line only), and of STAT1 and GAPDH in mouse and human cell lines. All Taqman probes and primers for the experiments here-in described were supplied as pre-validated sets by Applied Biosystems, Inc. (see Table 2).
The assays were performed on an ABI 7900 instrument, according to the manufacturer's instructions. […]

[2] = tested on: STAT1 human mRNA; assay: Initial screen of siNAs: STAT1 mRNA knock-down in A549 cells (96-well transfection, Taqman RT-PCR); format: cell-based; conditions: 10 nM siNA, 24 hrs, normalized against GAPDH, average of 2 experiments
Procedure: A549 (human; ATCC cat# CCL-185): Cells were cultured at 37° C. in the presence of 5% CO2 and grown in Ham's F12K medium with 2 mM L-glutamine adjusted to contain 1.5 g/L sodium bicarbonate and supplemented with fetal bovine serum at a final concentration of 10% and 100 μg/mL of streptomycin and 100 U/mL penicillin.
as §1, §2, §3, §4, §5, §6, §7, §8
The assays were performed on an ABI 7900 instrument, according to the manufacturer's instructions.
Within each experiment, the baseline was set in the exponential phase of the amplification curve, and based on the intersection point of the baselines with the amplification curve, a Ct value was assigned by the instrument. […]

| Substance | % KD Mouse [1] | % KD Human [2] |
| --- | --- | --- |
| 25360-DC: STAT1 siNA duplex, human target site 1793; modified strands SEQ ID NO: 57 and 58 (chain 1 CCAGGAAUCUGUCCUUCUUTT; chain 2 AAGAAGGACAGAUUCCUGGUU; chain 1: DNA at AGT, 2'-fluoro at CU, [invAb] at 5' end, 3' end, backbone not given here; chain 2: sugars from the 5' end rrrmmmmmfmmmfffffmmmm, backbone not given here) | 73% | 90% |
| 25361-DC: STAT1 siNA duplex, human target site 1104; modified strands SEQ ID NO: 59 and 60 (chain 1 GCCCAAUGCUUGCUUGGAUTT; chain 2 AUCCAAGCAAGCAUUGGGCUU; chain 1: DNA at AGT, 2'-fluoro at CU, [invAb] at 5' end, 3' end, backbone not given here; chain 2: sugars from the 5' end rrrfmmmfmmmfmffmmmfmm, backbone not given here) | 35% | 92% |
| 25362-DC: STAT1 siNA duplex, human target site 222; modified strands SEQ ID NO: 61 and 62 (chain 1 CUCGAGAGCUGUCUAGGUUTT; chain 2 AACCUAGACAGCUCUCGAGUU; chain 1: DNA at AGT, 2'-fluoro at CU, [invAb] at 5' end, 3' end, backbone not given here; chain 2: sugars from the 5' end rrrffmmmfmmfffffmmmmm, backbone not given here) | 45% | 87% |
| 25363-DC: STAT1 siNA duplex, human target site 480; modified strands SEQ ID NO: 63 and 64 (chain 1 GGAGCACGCUGCCAAUGAUTT; chain 2 AUCAUUGGCAGCGUGCUCCUU; chain 1: DNA at AGT, 2'-fluoro at CU, [invAb] at 5' end, 3' end, backbone not given here; chain 2: sugars from the 5' end rrrmffmmfmmfmfmffffmm, backbone not given here) | 72% | 83% |
| 25364-DC: STAT1 siNA duplex, human target site 674; modified strands SEQ ID NO: 65 and 66 (chain 1 GUCUGAAGGAAGAAAGGAATT; chain 2 UUCCUUUCUUCCUUCAGACUU; chain 1: sugars from the 5' end d1 f3 d17, [invAb] at 5' end, 3' end, backbone not given here; chain 2: sugars from the 5' end r3 f12 m3 f1 m2, backbone not given here) | 83% | 88% |
| 25365-DC: STAT1 siNA duplex, human target site 431; modified strands SEQ ID NO: 67 and 68 (chain 1 CCAUGGAAAUCAGACAGUATT; chain 2 UACUGUCUGAUUUCCAUGGUU; chain 1: DNA at AGT, 2'-fluoro at CU, [invAb] at 5' end, 3' end, backbone not given here; chain 2: sugars from the 5' end rrrfmfffmmfffffmfmmmm, backbone not given here) | 80% | 87% |
| 25366-DC: STAT1 siNA duplex, human target site 965; modified strands SEQ ID NO: 69 and 70 (chain 1 UGCUUGACAAUAAGAGAAATT; chain 2 UUUCUCUUAUUGUCAAGCAUU; chain 1: DNA at AGT, 2'-fluoro at CU, [invAb] at 5' end, 3' end, backbone not given here; chain 2: sugars from the 5' end rrrfffffmffmffmmmfmmm, backbone not given here) | 86% | 88% |
| 25370-DC: STAT1 siNA duplex, human target site 785; modified strands SEQ ID NO: 77 and 78 (chain 1 AAGUCAGAAAUGUGAAGGATT; chain 2 UCCUUCACAUUUCUGACUUUU; chain 1: DNA at AGT, 2'-fluoro at CU, [invAb] at 5' end, 3' end, backbone not given here; chain 2: sugars from the 5' end rrrfffmfmfffffmmfffmm, backbone not given here) | 76% | 84% |
| 25371-DC: STAT1 siNA duplex, human target site 432; modified strands SEQ ID NO: 79 and 80 (chain 1 CAUGGAAAUCAGACAGUACTT; chain 2 GUACUGUCUGAUUUCCAUGUU; chain 1: DNA at AGT, 2'-fluoro at CU, [invAb] at 5' end, 3' end, backbone not given here; chain 2: sugars from the 5' end rrrffmfffmmfffffmfmmm, backbone not given here) | 85% | 89% |
| 25373-DC: STAT1 siNA duplex, human target site 2160; modified strands SEQ ID NO: 83 and 84 (chain 1 CAGUGAGAGCUCCCGGGAATT; chain 2 UUCCCGGGAGCUCUCACUGUU; chain 1: DNA at AGT, 2'-fluoro at CU, [invAb] at 5' end, 3' end, backbone not given here; chain 2: sugars from the 5' end rrrffmmmmmfffffmffmmm, backbone not given here) | 24% | 30% |
